Key:
KPC cells [1] = test: Three-dimensional collagen invasion assay, KPC cells
Protocol: FIG. 5D (left panel) is a graph of quantification of invasion of murine KPC and human A2.1 treated with either DMSO or crenolanib at 300 nM. Values are means±SD of 9 replicates from one representative experiment.
In brief, 24-well transwell inserts (Greiner bio-one) were lined with collagen type 1 (BD Biosciences), and cells were seeded on the inverted inserts. The lower chambers were filled with medium containing 0.5% FBS and upper chambers containing the collagen matrix were filled with medium containing 20% FBS and the chemoattractant HGF.
Invasion assay inserts were fixed using 4% formaldehyde and stained using DAPI and Alexa568 phalloidin (Invitrogen) before confocal microscopy (Perkin Elmer Spinning Disk) was conducted. Images were analyzed using Imaris software.

PDGFRb [2] = molecular target: T1, PDGFRb (Mus musculus, UniProt P05622); test: phospho-PDGFRb in pancreatic tumors of treated KPC mice (immunofluorescence); assay type: in vivo; conditions: 50 mg/kg oral gavage twice daily
T1 construct: To measure levels of endogenously phosphorylated PDGFRb, KPC cells were treated with the drug; endogenous in cells; host or cells: murine KPC pancreatic cancer cell line (Kras G12D, p53 R172H, Pdx1-Cre)
T1 sequence (P05622 32-1098): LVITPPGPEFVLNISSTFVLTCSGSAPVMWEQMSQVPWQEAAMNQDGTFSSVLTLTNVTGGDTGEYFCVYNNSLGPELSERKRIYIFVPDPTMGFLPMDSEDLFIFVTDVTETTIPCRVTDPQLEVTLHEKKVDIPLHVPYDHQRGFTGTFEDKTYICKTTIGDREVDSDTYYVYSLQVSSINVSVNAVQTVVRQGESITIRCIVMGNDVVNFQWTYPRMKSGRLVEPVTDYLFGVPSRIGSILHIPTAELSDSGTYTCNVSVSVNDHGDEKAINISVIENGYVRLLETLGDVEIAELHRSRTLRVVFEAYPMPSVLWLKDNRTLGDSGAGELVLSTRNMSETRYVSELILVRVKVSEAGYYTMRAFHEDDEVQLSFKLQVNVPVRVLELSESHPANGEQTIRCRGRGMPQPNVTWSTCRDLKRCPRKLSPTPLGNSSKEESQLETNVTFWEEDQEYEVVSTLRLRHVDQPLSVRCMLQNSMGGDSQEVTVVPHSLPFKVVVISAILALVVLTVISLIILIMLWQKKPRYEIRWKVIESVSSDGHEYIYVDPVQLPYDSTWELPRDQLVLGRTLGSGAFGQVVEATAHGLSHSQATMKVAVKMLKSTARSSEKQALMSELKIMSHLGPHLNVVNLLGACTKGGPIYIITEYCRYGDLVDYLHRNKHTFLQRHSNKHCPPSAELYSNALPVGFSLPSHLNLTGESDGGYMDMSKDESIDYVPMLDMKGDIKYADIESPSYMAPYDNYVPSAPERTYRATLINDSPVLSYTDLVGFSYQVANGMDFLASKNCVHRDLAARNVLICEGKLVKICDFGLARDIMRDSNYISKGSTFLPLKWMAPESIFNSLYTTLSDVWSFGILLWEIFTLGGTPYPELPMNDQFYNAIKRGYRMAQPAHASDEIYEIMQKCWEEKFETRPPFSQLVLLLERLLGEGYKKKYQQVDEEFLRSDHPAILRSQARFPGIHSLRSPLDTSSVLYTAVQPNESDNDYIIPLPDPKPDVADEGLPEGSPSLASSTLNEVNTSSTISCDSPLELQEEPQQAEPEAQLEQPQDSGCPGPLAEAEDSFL
Protocol: DAPI, blue; CK8, red and p-PDGFRb, green. […] 15 images were analyzed per tumor (n=7). Tissues were fixed overnight in formalin, embedded in paraffin, and cut into 5-μm thick sections. Sections were subjected to hematoxylin and eosin staining, and immunohistochemical and immunofluorescent staining following standard protocols. The following primary antibodies were used: mouse anti-GFP (Cell Signaling), rabbit anti-p-PDGFR-β ([MUT]) (Santa Cruz Biotechnology) and rat anti-CK8 (DSHB). […] Images were acquired using a Zeiss Axio Imager D1 scope.

KPC cells [3] = test: Lung colonization assay after tail vein injection of drug-pretreated KPC cells; assay type: in vivo, mouse
Description: FIG. 5E (left panel) are representative merged brightfield/GFP imaged of whole lung as well as H&E stains of representative sections of pulmonary lobes after tail vein injection of crenolanib- or DMSO-treated KPC cells into mice. FIG. 5E (right panel) is a graph of quantification of total number of lung metastatic nodules in individual mouse (at least six mice per each group). Data are represented as mean±SD.
FIG. 6B (left panel) are representative merged brightfield/GFP images of whole lung. FIG. 6B (middle panel) are H&E stainings of representative sections of pulmonary lobes. […] FIG. 6B (right panel) is a graph of quantification of total number of lung metastatic nodules in individual mouse (at least six mice per each group. Data are represented as mean±SD.
(§1) All animal experiments were performed in accordance with a protocol approved by the Memorial Sloan-Kettering Institutional Animal Care and Use Committee. For colonization studies, KPC cells (1×10^5) were resuspended in 200 μl PBS and injected intravenously into the tail vein of 8 week-old female athymic nude mice. Lungs were harvested 7 days post injection and analyzed for colonization by GFP positivity (Nikon SMZ1500) and histology.

KPC mice = test: Treatment of KPC mice (PDAC mouse model): tumor, survival and metastasis; assay type: in vivo
Description: (§2) FIG. 6D is a graph of quantification of the number of mice with metastatic disease at the time of death. Values are percentages of the total number of mice in each cohort. Colored columns represent mice with metastases (METS) and white columns represent disease-free (DF) animals.
as §2, with “FIG. 6E is a” for “FIG. 6D is a”, “mice with lung, lymph nodes or liver metastatic disease” for “mice with metastatic disease”
Strains were maintained on mixed background. […] Organs and tumors were removed and fixed in 10% buffered formalin and tumor and metastatic burden was assessed by gross pathology and histology.

PDGFRb [4] = molecular target: T1, PDGFRb; test: PDGFRb phosphorylation in KPC cells (immunoprecipitation, phospho-Tyrosine western blot); assay type: cell-based
Protocol: FIG. 5C depicts immunoprecipitation of PDGFRb from KPC cells starved for 12 hours, treated with either increasing doses of crenolanib or DMSO for 4 hours and subsequently stimulated with 50 ng/ml of PDGF-BB recombinant protein. Protein levels of PDGFRb, phospho-Tyrosine and Tubulin were determined by western blotting.
Protein levels of PDGFRb, phospho-Tyrosine and Tubulin were determined by western blotting.
FIG. 12E depicts immunoprecipitation of PDGFRb from KPC cells treated with DMSO or crenolanib (300 nM) for different time periods. The input protein levels for PDGFRb, phospho-Tyrosine, and Actin and those present in immunoprecipitates for phospho-Tyrosine were determined by western blotting.
To measure levels of endogenously phosphorylated PDGFRb, KPC cells were treated with the drug as described and harvested in phospho-lysis buffer (50 mM Tris pH 7.5, 1% Tween-20, 200 mM NaCl, 0.2% NP-40, phosphatase inhibitors [2.5 mM Sodium pyrophosphate, 1 mM β-Glycerophosphate, 1 mM Na3VO4], and protease inhibitors [Roche]).

[5] = tested on: human A2.1 pancreatic cancer cells; test: MTS assay of A2.1 cell viability; assay type: cell-based
Protocol: (§3) FIG. 5B is a graph of MTS assay (E490) of murine KPC and human A2.1 cells treated with crenolanib with various doses for 72 hours. Normalized values are expressed as means±SD form quadruple replicates.
(§4) All cell lines were maintained in DMEM+10% FBS, at 37° C. in 5% CO2. Stable cell lines expressing shRNAs were generated by retroviral mediated gene transfer. Briefly, Phoenix or Ampho packaging cells (for murine or human cell lines, respectively) were transfected by the calcium phosphate method with vectors expressing NF-YA, NF-YB, p53, p73, PDGFRa, PDGFRb or Renilla-control shRNAs, and the generated viruses were harvested to infect KPC, KPflC, or a series of human pancreatic, breast, lung and colon cancer cell lines. Infected cells were selected with puromycin and experiments were carried out on derived cell populations. To generate cells stably expressing mutant p53, p73 or PDGFRb, KPflC cells were infected with MSCV-p53-R175H, -R273H, PDGFRb or pcDNA3-HA-p73α and selected in puromycin and G418 respectively to yield stable pools.

KPC cells [6] = test: Propidium Iodide staining of KPC cells treated overnight; assay type: cell-based, mouse; conditions: KPC cells pretreated overnight
A2.1 cells = test: Three-dimensional collagen invasion assay, A2.1 cells; assay type: cell-based, human; conditions: 300 nM
Protocol: Images were analyzed using Imaris software.

[7] = tested on: murine KPC pancreatic cancer cells; test: MTS assay of KPC cell viability/proliferation; assay type: cell-based, mouse
Protocol: as §3
Normalized values are expressed as means±SD form quadruple replicates.
as §4

PDGFRb [8] = molecular target: T2, PDGFRb (Homo sapiens, UniProt P09619); test: Western blotting for phospho-PDGFRb in A2.1 cells; assay type: cell-based; conditions: 0.3 μM
T2 construct: Western blotting for phospho-PDGFRb, PDGFRb, and Actin in human A2.1 cells; endogenous in cells; host or cells: human A2.1 pancreatic cancer cell line (mutant p53 155P)
T2 sequence (P09619 33-1106): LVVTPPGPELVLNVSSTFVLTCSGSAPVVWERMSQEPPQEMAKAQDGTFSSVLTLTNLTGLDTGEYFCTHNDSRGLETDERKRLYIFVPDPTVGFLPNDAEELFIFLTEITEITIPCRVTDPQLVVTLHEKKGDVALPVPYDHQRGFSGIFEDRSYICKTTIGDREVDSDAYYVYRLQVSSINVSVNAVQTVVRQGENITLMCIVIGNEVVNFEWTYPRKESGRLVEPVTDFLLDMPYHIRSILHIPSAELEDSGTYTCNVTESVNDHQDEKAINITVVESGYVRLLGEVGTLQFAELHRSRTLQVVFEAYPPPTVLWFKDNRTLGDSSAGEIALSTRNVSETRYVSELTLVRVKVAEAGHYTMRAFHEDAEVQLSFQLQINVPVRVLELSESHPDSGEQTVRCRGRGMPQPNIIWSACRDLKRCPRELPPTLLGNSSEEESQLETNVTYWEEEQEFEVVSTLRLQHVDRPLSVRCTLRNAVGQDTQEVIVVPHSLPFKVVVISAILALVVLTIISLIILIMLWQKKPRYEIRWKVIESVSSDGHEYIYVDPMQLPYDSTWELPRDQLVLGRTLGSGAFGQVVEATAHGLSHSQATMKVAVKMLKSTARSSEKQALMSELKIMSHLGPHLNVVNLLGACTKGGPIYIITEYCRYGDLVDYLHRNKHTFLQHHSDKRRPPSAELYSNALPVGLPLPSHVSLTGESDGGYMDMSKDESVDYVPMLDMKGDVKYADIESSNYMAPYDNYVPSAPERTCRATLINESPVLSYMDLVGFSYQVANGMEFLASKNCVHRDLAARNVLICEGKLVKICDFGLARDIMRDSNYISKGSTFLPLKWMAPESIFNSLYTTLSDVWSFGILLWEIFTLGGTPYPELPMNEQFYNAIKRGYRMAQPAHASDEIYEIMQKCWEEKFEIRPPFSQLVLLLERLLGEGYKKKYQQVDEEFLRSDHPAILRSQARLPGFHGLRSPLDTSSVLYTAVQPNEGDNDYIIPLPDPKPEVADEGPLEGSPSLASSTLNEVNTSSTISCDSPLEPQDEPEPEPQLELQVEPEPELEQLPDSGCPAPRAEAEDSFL
Description: FIG. 12D depicts Western blotting for phospho-PDGFRb, PDGFRb, and Actin in human A2.1 cells after treatment with DMSO or crenolanib at varying doses.

KPflC cells = test: Lung colonization assay after tail vein injection of drug-pretreated KPflC cells; assay type: in vivo, mouse; conditions: same concentration as for KPC cells
Protocol: FIG. 12G (left panel) depicts representative merged brightfield/GFP images of pulmonary lobes after tail vein injection of crenolanib- or DMSO-treated KPflC cells into mice. FIG. 12G (middle panel) depicts H&E stainings of representative sections of pulmonary lobes. FIG. 12G (right panel) is a graph of quantification of total number of lung metastatic nodules in individual mouse (at least six mice per each group). Data are represented as mean±SD.
as §1

[9] = 50 mg/kg oral gavage twice daily

Row | IC50 ([5]; Pancreatic cancer cell, human A2.1 cells, MTS assay, 72 hours, read-out: IC50, inhibiting the viability) [µM] | IC50 ([7]; Mus musculus, Pancreatic cancer cell, murine KPC cells, MTS assay, 72 hours, read-out: IC50, inhibiting the viability) [µM] | inhibition of PDGFRb activity, as measured by phospho-PDGFRb (PDGFRb [8]) | inhibition of PDGFRb activity, as measured by phospho-PDGFRb (PDGFRb [4]; 0.3 μM) | time of drug treatment to strong target inhibition (PDGFRb [4]; time course, 300 nM) [min] | Structure (SMILES) | invasive potential in vitro (KPC cells [1]; 3 μM vs DMSO) | levels of phospho-PDGFRb in the tumor cells of primary tumors (PDGFRb [2]) | potential to colonize the lungs of recipient athymic mice (KPC cells [3]; pre-treatment of KPC cells) | anti-metastatic effect across organs (liver, lymph nodes and lung) (KPC mice; [9]) | occurrence of metastasis (KPC mice; [9]) | overall survival (KPC mice; 50 mg/kg oral gavage twice daily from 8 weeks of age) | incidence of metastasis (KPC mice; 50 mg/kg oral gavage twice daily, GFP fluorescence and histopathology, 92% in vehicle-treated animals) [%] | PDGFRb tyrosine phosphorylation (PDGFRb [4]; 3 uM) | toxicity ([5]; A2.1 cells, 0.3 μM) | viability of the injected cell population (KPC cells [6]) | invasion relative to cells treated with DMSO (A2.1 cells) | invasion relative to cells treated with DMSO (KPC cells [1]; 300 nM) | toxicity ([7]; KPC cells, 0.3 μM) | lung nodules compared to controls pre-treated with DMSO (KPC cells [3]; KPC cells pretreated overnight, injected intravenously) | metastatic potential in lung colonization assay (KPflC cells)
1 | – | – | – | – | – | Cc1ccc(NC(=O)c2ccc(CN3CCN(C)CC3)cc2)cc1Nc1nccc(-c2cccnc2)n1 [imatinib] | significantly reduced the invasive potential | reduced levels of phospho-PDGFRb | decreased their potential to colonize the lungs | anti-metastatic effect was observed | striking reduction in the occurrence of metastasis | no impact | 15 | strongly reduced PDGFRb tyrosine phosphorylation | – | – | – | – | – | – | –
2 | 8.5 | 13.1 | Strong inhibition | Strong inhibition | ≤ 10 | CC1(COc2ccc3c(c2)ncn3-c2ccc3cccc(N4CCC(N)CC4)c3n2)COC1 [crenolanib, Crenolanib] | – | – | – | – | – | – | – | – | no toxicity was observed | no effect on the viability | substantially reduced invasion | substantially reduced invasion | no toxicity was observed | significantly fewer lung nodules | did not reduce the metastatic potential

From patent US20170038384A1, “TREATMENT OF TUMORS EXPRESSING MUTANT P53” (SLOAN-KETTERING INSTITUTE FOR CANCER RESEARCH, priority 2014, published 2017)
